Laboratory results as given in US9321767B2, “Azabenzimidazoles as respiratory syncytial virus antiviral agents” (JANSSEN SCIENCES IRELAND UC, priority 2010, dated 2016).
Read-outs that look alike come from different tables or passages of the source.

How the values were obtained:
HeLa cells = experiment: Cytotoxicity in HeLa cells, ATP content (ATPlite kit); type: cell-based
Protocol: (§1) Black 96-well clear-bottom microtiter plates (Corning, Amsterdam, The Netherlands) were filled in duplicate using a customized robot system with serial 4-fold dilutions of compound in a final volume of 50 μl culture medium [RPMI medium without phenol red, 10% FBS, 0.04% gentamycin (50 mg/mL) and 0.5% DMSO]. Then, 100 μl of a HeLa cell suspension (5×10^4 cells/mL) in culture medium was added to each well followed by the addition of 50 μl rgRSV224 (MOI=0.02) virus in culture medium using a multidrop dispenser (Thermo Scientific, Erembodegem, Belgium). rgRSV224 virus is an engineered virus that includes an additional GFP gene (Hallak et al, 2000) and was in-licensed from the NIH (Bethesda, Md., USA). Medium, virus- and mock-infected controls were included in each test. Cells were incubated at 37° C. in a 5% CO2 atmosphere. Three days post-virus exposure, viral replication was quantified by measuring GFP expression in the cells by a MSM laser microscope (Tibotec, Beerse, Belgium). The EC50 was defined as the 50% inhibitory concentration for GFP expression. In parallel, compounds were incubated for three days in a set of white 96-well microtitier plates (Corning) and the cytotoxicity of compounds in HeLa cells was determined by measuring the ATP content of the cells using the ATPlite kit (PerkinElmer, Zaventem, Belgium) according to the manufacturer's instructions. The CC50 was defined as the 50% concentration for cytotoxicity.

rgRSV224 virus = experiment: microbe, parasite or virus in culture; type: cell-based, respiratory syncytial virus (RSV); settings: read-out: RSV-wt_EC50
Protocol: as §1

[1] = HeLa cells, three days incubation, ATP content
[2] = human respiratory syncytial virus, HeLa, 72 h

SMILES | TOX-HELA_EC50 (HeLa cells; [1]) | EC50 (rgRSV224 virus; [2]) | TOX-HELA_EC50 (HeLa cells) | EC50 (rgRSV224 virus; rgRSV224 in HeLa cells, three days post-virus exposure, GFP expression)
CC(C)CCn1c(Cn2c(=O)n(C3CC3)c3ccccc32)nc2ncccc21 [Compound 4, 1-cyclopropyl-3-((1-isopentyl-1H-imidazo[4,5-b]pyridin-2-yl)methyl)-1H-benzo[d]imidazol-2(3H)-one] | >9.836 µM | 7.08 nM | – | –
CC(C)CCn1c(Cn2c(=O)n(C3CC3)c3ccncc32)nc2ncccc21 [Compound 5, 1-cyclopropyl-3-((1-isopentyl-1H-imidazo[4,5-b]pyridin-2-yl)methyl)-1H-imidazo[4,5-c]pyridin-2(3H)-one] | >98.3603 µM | 8.67 nM | – | –
CC(C)CCn1c(Cn2c(=O)n(C3CC3)c3ccc(F)cc32)nc2nc(Cl)ccc21 [Compound 6, 3-((5-chloro-1-isopentyl-1H-imidazo[4,5-b]pyridin-2-yl)methyl)-1-cyclopropyl-5-fluoro-1H-benzo[d]imidazol-2(3H)-one] | >9.836 µM | 8.67 nM | – | –
CS(=O)(=O)CCCn1c(Cn2c(=O)n(C3CC3)c3ccncc32)nc2ncccc21 [Compound 7, 1-cyclopropyl-3-((1-(3-(methylsulfonyl)propyl)-1H-imidazo[4,5-b]pyridin-2-yl)methyl)-1H-imidazo[4,5-c]pyridin-2(3H)-one] | >9.836 µM | 13.7 nM | – | –
CC(C)CCn1c(Cn2c(=O)n(C3CC3)c3ccc(F)cc32)nc2ncccc21 [Compound 8, 1-cyclopropyl-5-fluoro-3-((1-isopentyl-1H-imidazo[4,5-b]pyridin-2-yl)methyl)-1H-benzo[d]imidazol-2(3H)-one] | >9.836 µM | 15.9 nM | – | –
CC(C)CCn1c(Cn2c(=O)n(C3COC3)c3ccncc32)nc2ncccc21 [Compound 9, 3-((1-isopentyl-1H-imidazo[4,5-b]pyridin-2-yl)methyl)-1-(oxetan-3-yl)-1H-imidazo[4,5-c]pyridin-2(3H)-one] | >9.836 µM | 58.1 nM | – | –
COCCCn1c(Cn2c(=O)n(C3CC3)c3ccncc32)nc2ncccc21 [Compound 10] | 4.756 µM | 89.3 nM | – | –
O=c1n(Cc2nc3ncccc3n2CCCF)c2cnccc2n1C1CC1 [Compound 11] | >9.836 µM | 90.9 nM | – | –
COCCCn1c(Cn2c(=O)n(C3COC3)c3ccncc32)nc2ncccc21 [Compound 12, 3-((1-(3-methoxypropyl)-1H-imidazo[4,5-b]pyridin-2-yl)methyl)-1-(oxetan-3-yl)-1H-imidazo[4,5-c]pyridin-2(3H)-one] | >98.3603 µM | 1940 nM | – | –
CC(C)CCn1c(Cn2c(=O)n(C3CC3)c3ccccc32)nc2nc(Cl)ccc21 [Compound 13, 3-((5-chloro-1-isopentyl-1H-imidazo[4,5-b]pyridin-2-yl)methyl)-3-cyclopropyl-1H-benzo[d]imidazol-2(3H)-one] | >9.84 µM | 2.3 nM | – | –
O=c1n(Cc2nc3nc(Cl)ccc3n2CCCCO)c2cnccc2n1C1CC1 [Compound 14, 3-((5-chloro-1-(4-hydroxybutyl)-1H-imidazo[4,5-b]pyridin-2-yl)methyl)-1-cyclopropyl-1H-imidazo[4,5-c]pyridin-2(3H)-one] | >9.84 µM | 6 nM | – | –
COCCCn1c(Cn2c(=O)n(C3CC3)c3ccc(F)cc32)nc2ncccc21 [Compound 15, 1-cyclopropyl-5-fluoro-3-((1-(3-methoxypropyl)-1H-imidazo[4,5-b]pyridin-2-yl)methyl)-1H-benzo[d]imidazol-2(3H)-one] | >98.3603 µM | 220 nM | – | –
CC(C)CCn1c(Cn2c(=O)n(C3CC3)c3ccncc32)nc2cc(Br)cnc21 [Compound 16, 3-((6-bromo-3-isopentyl-3H-imidazo[4,5-b]pyridin-2-yl)methyl)-1-cyclopropyl-1H-imidazo[4,5-c]pyridin-2(3H)-one] | >98.3603 µM | 8.81 nM | – | –
CC(C)CCn1c(Cn2c(=O)n(C3CC3)c3ccncc32)nc2cc(CN)cnc21 [Compound 17, 3-((6-(aminomethyl)-3-isopentyl-3H-imidazo[4,5-b]pyridine-2-yl)methyl)-1-cyclopropyl-1H-imidazo[4,5-c]pyridin-2(3H)-one] | >98.3603 µM | 11.8 nM | – | –
CC(C)CCn1c(Cn2c(=O)n(C3COC3)c3ccncc32)nc2cc(Br)cnc21 [Compound 18, 3-((6-bromo-3-isopentyl-3H-imidazo[4,5-b]pyridin-2-yl)methyl)-1-(oxetan-3-yl)-1H-imidazo[4,5-c]pyridin-2(3H)-one] | >9.836 µM | 17.3 nM | – | –
O=c1n(Cc2nc3cc(Br)cnc3n2CCCCO)c2cnccc2n1C1CC1 [Compound 19, 3-((6-bromo-3-(4-hydroxybutyl)-3H-imidazo[4,5-b]pyridin-2-yl)methyl)-1-cyclopropyl-1H-imidazo[4,5-c]pyridin-2(3H)-one] | >98.3603 µM | 19.1 nM | – | –

SMILES | TOX-HELA_EC50 (HeLa cells; [1]) | EC50 (rgRSV224 virus; [2]) | TOX-HELA_EC50 (HeLa cells) | EC50 (rgRSV224 virus; rgRSV224 in HeLa cells, three days post-virus exposure, GFP expression)
O=c1n(Cc2nc3cc(Br)cnc3n2CCCCO)c2cnccc2n1C1COC1 [Compound 20, 3-((6-bromo-3-(4-hydroxybutyl)-3H-imidazo[4,5-b]pyridin-2-yl)methyl)-1-(oxetan-3-yl)-1H-imidazo[4,5-c]pyridin-2(3H)-one] | >9.836 µM | 36.1 nM | – | –
O=c1n(Cc2nc3cc(Cl)cnc3n2CCCCO)c2cnccc2n1C1CC1 [Compound 21, 3-((6-chloro-3-(4-hydroxybutyl)-3H-imidazo[4,5-b]pyridin-2-yl)methyl)-1-cyclopropyl-1H-imidazo[4,5-c]pyridin-2(3H)-one] | >9.836 µM | 54.6 nM | – | –
O=c1n(Cc2nc3cc(F)cnc3n2CCCCO)c2cnccc2n1C1CC1 [Compound 22, 1-cyclopropyl-3-((6-fluoro-3-(4-hydroxybutyl)-3H-imidazo[4,5-b]pyridin-2-yl)methyl)-1H-imidazo[4,5-c]pyridin-2(3H)-one] | >9.836 µM | 403 nM | – | –
CC(C)CCn1c(Cn2c(=O)n(C3CC3)c3ccncc32)nc2cc(B(O)O)cnc21 [Compound 23, 2-((1-cyclopropyl-2-oxo-1H-imidazo[4,5-c]pyridin-3(2H)-yl)methyl)-3-isopentyl-3H-imidazo[4,5-b]pyridin-6-ylboronic acid] | >98.3603 µM | 645 nM | – | –
CC(C)CCn1c(Cn2c(=O)n(C3CC3)c3ccncc32)nc2cccnc21 [Compound 24, 1-cyclopropyl-3-((3-isopentyl-3H-imidazo[4,5-b]pyridin-2-yl)methyl)-1H-imidazo[4,5-c]pyridin-2(3H)-one] | >98.3603 µM | 1220 nM | – | –
CC(C)CCn1c(Cn2c(=O)n(C(C)C)c3ccnc(Cl)c32)nc2cccnc21 [Compound 25, 4-chloro-3-((3-isopentyl-3H-imidazo[4,5-b]pyridin-2-yl)methyl)-1-isopropyl-1H-imidazo[4,5-c]pyridin-2(3H)-one] | >24.5901 µM | 8270 nM | – | –
COC(=O)c1cnc2c(c1)nc(Cn1c(=O)n(C3CC3)c3ccncc31)n2CCC(C)C [Compound 26, methyl 2-((1-cyclopropyl-2-oxo-1H-imidazo[4,5-c]pyridin-3(2H)-yl)methyl)-3-isopentyl-3H-imidazo[4,5-b]pyridine-6-carboxylate] | >98.3603 µM | 8610 nM | – | –
CC(C)CCn1c(Cn2c(=O)n(C3CC3)c3ccncc32)nc2cc(C#N)cnc21 [Compound 27, 2-((1-cyclopropyl-2-oxo-1H-imidazo[4,5-c]pyridin-3(2H)-yl)methyl)-3-isopentyl-3H-imidazo[4,5-b]pyridine-6-carbonitrile] | >98.3603 µM | 34100 nM | – | –
CC(C)CCn1c(Cn2c(=O)n(C3CC3)c3ccncc32)nc2cc(C(=O)O)cnc21 [Compound 28, 2-((1-cyclopropyl-2-oxo-1H-imidazo[4,5-c]pyridin-3(2H)-yl)methyl)-3-isopentyl-3H-imidazo[4,5-b]pyridine-6-carboxylic acid] | >49.1802 µM | > 49200 nM | – | –
CC(C)CCn1c(Cn2c(=O)n(C(C)C)c3ccnc(C#N)c32)nc2cccnc21 [Compound 29, 3-((3-isopentyl-3H-imidazo[4,5-b]pyridin-2-yl)methyl)-1-isopropyl-2-oxo-2,3-dihydro-1H-imidazo[4,5-c]pyridine-4-carbonitrile] | >98.3603 µM | > 98400 nM | – | –
CC(C)CCn1c(Cn2c(=O)n(C3CC3)c3ccccc32)nc2cnccc21 [Compound 31] | >9.836 µM | 5.4 nM | – | –
CC(C)CCn1c(Cn2c(=O)n(C3CC3)c3ccc(F)cc32)nc2cnccc21 [Compound 32] | >9.836 µM | 11.3 nM | – | –
CC(C)CCn1c(Cn2c(=O)n(C3CC3)c3ccncc32)nc2cnccc21 [Compound 33] | >98.3603 µM | 30.4 nM | – | –
CC(C)CCn1c(Cn2c(=O)n(C3CC3)c3ccncc32)nc2ccncc21 [Compound 34] | >98.3603 µM | 74 nM | – | –
O=c1n(Cc2nc3cnccc3n2CCCCO)c2cnccc2n1C1CC1 [Compound 35] | – | – | >98.3603 µM | 79.5 nM
